According to patent publication US12624039B2, “BTK inhibitors” (DIZAL (JIANGSU) PHARMACEUTICAL CO., LTD., priority 2020, dated 2026):
Like-named read-outs stand apart in the source and are kept apart here.

Test: Short oral absorption (SOA) assay in rats, brain penetration
Type: in vivo
Details: rat; for Kp: brain, AUCbrain/AUCplasma
Method: Short Oral Absorption (SOA) Assay in Rats.
A Short oral absorption (SOA) model is an in-vivo screening model to identify brain penetration of a compound. To evaluate the potential of a compound to cross the blood-brain barrier in rats, total brain-to-plasma ratio (Kp,brain) was measured AUCbrain/AUCplasma. CSF-to-plasma ratio (Kp,CSF) was determined by either AUCCSF/AUCplasma or the average of CSF-to-plasma ratios at available time points after oral administration, respectively. Free fractions of in biological matrix were determined by in vitro plasma and brain binding assay in a separate study. Kp,uu,brain and Kp,uu,CSF were calculated by the following equations: (1) Kp,uu,brain=Kp, brain×fu,brain/fu,plasma; (2) Kp,uu,CSF=Kp,CSF/fu,plasma.

[1] = Kp,CSF/fu,plasma, read-out: Kp, uu CSF
[2] = Kp,brain×fu,brain/fu,plasma, read-out: Kp, uu brain

Kp | Kp uu [1] | Kp uu [2] | SMILES
1.35 | 0.86 | 1.19 | Nc1nccn2c(C3CCC(CO)OC3)nc(-c3ccc(Oc4ccccc4)cc3F)c12 (single isomer, unassigned) [Compound 2, Trans-(5-(8-amino-1-(2-fluoro-4-phenoxyphenyl)imidazo[1,5-a]pyrazin-3-yl)tetrahydro-2H-pyran-2-yl)methanol]
0.38 | 0.56 | 0.23 | Nc1ncnn2c(C3CCC(CO)OC3)nc(-c3ccc(Oc4ccccc4)cc3F)c12 (single isomer, unassigned) [Compound 10, Trans-(5-(4-amino-5-(2-fluoro-4-phenoxyphenyl)imidazo[5,1-f][1,2,4]triazin-7-yl)tetrahydro-2H-pyran-2-yl)methanol]
0.32 | 0.59 | 0.23 | Nc1ncnn2c(C3CCC(CO)OC3)nc(-c3ccc(Oc4cccc(F)c4F)cc3)c12 (stereo not drawn) [Compound 14, (5-(4-amino-5-(4-(2,3-difluorophenoxy)phenyl)imidazo[5,1-f][1,2,4]triazin-7-yl)tetrahydro-2H-pyran-2-yl)methanol]
